The source of these data is patent US5624923A, “Tricyclic diazepine vasopressin antagonists and oxytocin antagonists” (priority 1995, dated 1997).

One assay has as its target T1, Rat Hepatic V1 Receptors (Rattus norvegicus, UniProt P30560).
T1 construct: Rat liver plasma membranes expressing the vasopressin V1 receptor subtypes; from tissue; host or cells: rat liver plasma membranes
Put plainly: Binding Assay to Rat Hepatic V1 Receptors. The settings on record: rat liver membranes; read-out: V1 IC50.

The test system of another assay is Vasopressin V1. Put plainly: Vasopressin V1 Antagonist Activity in Conscious Rats (vasopressin vasopressor response). It is filed as in vivo, rat. On the set-up: Average Change: unit not given here. As to conditions: for % Inhibition / Average Change: SHR. The method in brief:
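Conscious rats are restrained supine, and under local 2% procaine a PE 10/20 cannula is passed through the ventral caudal tail artery into the lower abdominal aorta. The caudal vein is cannulated for intravenous dosing. Blood pressure is recorded with a Statham P23Db transducer, and vasopressin injections are repeated after compound dosing. Percent antagonism is calculated against the pre-drug vasopressor response taken as 100%.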

The next assay deals with T2, oxytocin receptors (Rattus norvegicus, UniProt P70536).
T2 construct: The uteri are dissected out, cleaned of fat and connective tissues; from tissue; host or cells: uterus of DES-treated female Sprague-Dawley rats
T2 sequence (P70536 1-388): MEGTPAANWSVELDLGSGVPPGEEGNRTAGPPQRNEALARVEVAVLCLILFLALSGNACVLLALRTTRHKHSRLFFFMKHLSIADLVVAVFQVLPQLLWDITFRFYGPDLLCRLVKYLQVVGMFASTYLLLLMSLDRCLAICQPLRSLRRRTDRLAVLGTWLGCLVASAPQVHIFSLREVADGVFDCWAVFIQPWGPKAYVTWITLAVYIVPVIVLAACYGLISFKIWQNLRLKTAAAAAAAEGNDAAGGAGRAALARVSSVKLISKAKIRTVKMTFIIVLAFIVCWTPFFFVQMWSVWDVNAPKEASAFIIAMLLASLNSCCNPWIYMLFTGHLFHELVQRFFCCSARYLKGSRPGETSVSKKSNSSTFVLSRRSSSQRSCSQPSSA
Put plainly: Oxytocin Receptor Binding. The settings on record: for IC50: 1.0 nM [3H]oxytocin; for inhibition at 10 µM: [3H]oxytocin. Summed up:
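Membranes from uteri of DES-primed (0.3 mg/kg i.m., 18 h) female Sprague-Dawley rats. Competition with 1.0 nM [3H]oxytocin in 50 mM Tris.HCl pH 7.4, 5 mM MgCl2 with protease inhibitors, 60 min at 22 °C, filtration read-out. Non-specific binding with 1.0 uM unlabeled OT; IC50 calculated.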

The mark [1] stands for this setting: 10 mg/kg i.v., VAS 0.01 i.u./kg, 30 min.
[2] abbreviates: 10 mg/kg i.v., VAS 0.01 i.u./kg, 60 min.
Where [3] appears, read: 10 mg/kg i.v., VAS 0.01 i.u./kg, 90 min.
Setting [4] is: 10 mg/kg i.v., VAS 0.01 i.u./kg, 120 min.
The mark [5] stands for this setting: 10 mg/kg i.v., VAS 0.01 i.u./kg, 180 min.
The mark [6] stands for this setting: 10 mg/kg i.v., VAS 0.01 i.u./kg, 240 min.
The mark [7] stands for this setting: 10 mg/kg i.v., VAS 0.01 i.u./kg, 300 min.
[8] abbreviates: 10 mg/kg i.v., VAS 0.02 i.u./kg, 30 min.
Setting [9] is: 10 mg/kg i.v., VAS 0.02 i.u./kg, 60 min.
Where [10] appears, read: 10 mg/kg i.v., VAS 0.02 i.u./kg, 90 min.
Where [11] appears, read: 10 mg/kg i.v., VAS 0.02 i.u./kg, 120 min.
The mark [12] stands for this setting: 10 mg/kg i.v., VAS 0.02 i.u./kg, 180 min.
[13] abbreviates: 10 mg/kg i.v., VAS 0.02 i.u./kg, 240 min.
Where [14] appears, read: 10 mg/kg i.v., VAS 0.02 i.u./kg, 300 min.

T1 sequence (P30560 whole entry): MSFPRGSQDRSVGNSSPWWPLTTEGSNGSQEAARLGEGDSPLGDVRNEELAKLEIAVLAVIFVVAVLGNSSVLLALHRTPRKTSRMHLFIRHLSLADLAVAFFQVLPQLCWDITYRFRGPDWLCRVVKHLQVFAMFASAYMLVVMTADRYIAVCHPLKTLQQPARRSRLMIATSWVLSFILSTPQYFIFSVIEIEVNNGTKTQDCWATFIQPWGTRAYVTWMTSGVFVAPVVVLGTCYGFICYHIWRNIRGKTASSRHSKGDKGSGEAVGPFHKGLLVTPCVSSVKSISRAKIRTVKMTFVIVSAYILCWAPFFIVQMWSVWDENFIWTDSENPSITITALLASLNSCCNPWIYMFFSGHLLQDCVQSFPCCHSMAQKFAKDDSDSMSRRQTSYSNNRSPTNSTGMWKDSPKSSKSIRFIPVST

On to `O=C(Nc1ccc(C(=O)N2Cc3cccn3Cc3ccccc32)cc1)c1ccc(Cl)cc1Cl` [Example 6, N-[4-(5H-pyrrolo[2,1-c][1,4]benzodiazepin-10(11H)-ylcarbonyl)phenyl]-2,4-dichlorobenzamide], for which the half-inhibitory concentration (IC50) on Rat Hepatic V1 Receptors is 23 nM; at oxytocin receptors, 350 nM. Besides, the “% Inhibition” value is listed as 85% with Vasopressin V1 (setting [1]); 79% in the assay on Vasopressin V1 (setting [2]); 63% with Vasopressin V1 (setting [3]); 59% in the assay with Vasopressin V1 (setting [4]); 44% in the assay with Vasopressin V1 (setting [5]); 34% in the assay with Vasopressin V1 (setting [6]). The “% Inhibition” value in the assay on Vasopressin V1 (setting [7]) was 30%; in the assay with Vasopressin V1 (setting [8]), 62%; with Vasopressin V1 (setting [9]), 45%; in the assay on Vasopressin V1 (setting [10]), 36%; in the assay with Vasopressin V1 (setting [11]), 30%; in the assay on Vasopressin V1 (setting [12]), 17%. The “% Inhibition” value with Vasopressin V1 (setting [13]) is listed as 15%; in the assay on Vasopressin V1 (setting [14]) it was 14%. Further, the “Average Change” value in the assay on Vasopressin V1 (setting [1]) stood at 5.5; in the assay on Vasopressin V1 (setting [2]), 7.5; in the assay with Vasopressin V1 (setting [3]) it was 13.5; in the assay on Vasopressin V1 (setting [4]) it was 15; in the assay with Vasopressin V1 (setting [5]), 20.5; in the assay on Vasopressin V1 (setting [6]) it was 24. Further, the “Average Change” value with Vasopressin V1 (setting [7]) stood at 25.5; in the assay on Vasopressin V1 (setting [8]), 16; in the assay with Vasopressin V1 (setting [9]) it was 23; with Vasopressin V1 (setting [10]) it was 27; in the assay on Vasopressin V1 (setting [11]) it was 29.5; in the assay on Vasopressin V1 (setting [12]) it was 35. Further, the “Average Change” value in the assay on Vasopressin V1 (setting [13]) was 35.5; with Vasopressin V1 (setting [14]), 36. Also, the inhibition at 10 µM on oxytocin receptors is 92%.
Turning to `O=C(Nc1ccc(C(=O)N2Cc3cccn3Cc3ccccc32)cc1)c1ccccc1Cl` [Example 7], the half-maximal inhibitory concentration (IC50) at Rat Hepatic V1 Receptors was 10 nM; at oxytocin receptors, 130 nM. Further, the “% Inhibition” value in the assay on Vasopressin V1 (setting [1]) was 87%; in the assay with Vasopressin V1 (setting [2]), 87%; with Vasopressin V1 (setting [3]), 82%; in the assay on Vasopressin V1 (setting [4]), 80%; in the assay on Vasopressin V1 (setting [5]), 63%; in the assay on Vasopressin V1 (setting [6]) it was 56%. Besides, the “% Inhibition” value with Vasopressin V1 (setting [7]) is recorded as 57%; in the assay with Vasopressin V1 (setting [8]), 87%; in the assay with Vasopressin V1 (setting [9]), 86%; in the assay with Vasopressin V1 (setting [10]) it was 78%; in the assay with Vasopressin V1 (setting [11]), 77%; in the assay on Vasopressin V1 (setting [12]), 59%. Besides, the results for the “% Inhibition” value in the assay on Vasopressin V1 (setting [13]) and in the assay with Vasopressin V1 (setting [14]) were 46% and 59%, respectively. The “Average Change” value in the assay with Vasopressin V1 (setting [1]) is 6; in the assay on Vasopressin V1 (setting [2]) it was 6; in the assay with Vasopressin V1 (setting [3]) it was 8.5; in the assay with Vasopressin V1 (setting [4]), 9.5; with Vasopressin V1 (setting [5]), 17.5; with Vasopressin V1 (setting [6]), 20.5. The “Average Change” value was found to be 20 in the assay on Vasopressin V1 (setting [7]); 7.5 in the assay with Vasopressin V1 (setting [8]); 8 in the assay on Vasopressin V1 (setting [9]); 12.5 in the assay with Vasopressin V1 (setting [10]); 13 in the assay with Vasopressin V1 (setting [11]); 23 in the assay on Vasopressin V1 (setting [12]). Moreover, the entries for the “Average Change” value in the assay with Vasopressin V1 (setting [13]) and with Vasopressin V1 (setting [14]) were 30.5 and 23, respectively. Further, on oxytocin receptors, testing at 10 µM gave an inhibition of 97%.
As to `O=C(Nc1ccc(C(=O)N2Cc3cccn3-c3ccccc32)cc1)c1ccc(Cl)cc1Cl` [Example 17, N-[4-(pyrrolo(1,2-a]quinoxalin-5(4H)-ylcarbonyl)phenyl]-2,4-dichloro-benzamide], at Rat Hepatic V1 Receptors, the half-maximal inhibitory concentration (IC50) stood at 1200 nM. Further, in the assay on Vasopressin V1 (30 mg/kg i.v.), the “Max. % Inhibition” value came to 50% and the “Time (of max. % inhibition)” value is 60 min. The same compound showed an inhibition at 10 µM at oxytocin receptors of 31%.
For `CSc1ccccc1C(=O)Nc1ccc(C(=O)N2Cc3cccn3Cc3ccccc32)cc1` [Example 85, N-[4-(5H-Pyrrolo[2,1-c][1,4]benzodiazepin-10(11H)-ylcarbonyl)phenyl]-2-(methylthio)benzamide], the IC50 was found to be 9 nM at Rat Hepatic V1 Receptors and 460 nM on oxytocin receptors. Further, the “% Inhibition” value worked out at 83% with Vasopressin V1 (setting [1]); 74% in the assay on Vasopressin V1 (setting [2]); 64% in the assay with Vasopressin V1 (setting [3]); 66% in the assay with Vasopressin V1 (setting [4]); 42% in the assay with Vasopressin V1 (setting [5]); 55% in the assay on Vasopressin V1 (setting [6]). Further, the “% Inhibition” value with Vasopressin V1 (setting [7]) is recorded as 5%; in the assay with Vasopressin V1 (setting [8]) it was 75%; in the assay on Vasopressin V1 (setting [9]), 73%; in the assay with Vasopressin V1 (setting [10]), 79%; in the assay with Vasopressin V1 (setting [11]), 82%; in the assay on Vasopressin V1 (setting [12]), 45%. In addition, the “% Inhibition” value in the assay on Vasopressin V1 (setting [13]) and in the assay on Vasopressin V1 (setting [14]) was 49% in each case. In addition, the “Average Change” value in the assay with Vasopressin V1 (setting [1]) came to 4.5; in the assay with Vasopressin V1 (setting [2]), 7; in the assay with Vasopressin V1 (setting [3]) it was 9.5; with Vasopressin V1 (setting [4]), 9; in the assay with Vasopressin V1 (setting [5]), 15.5; with Vasopressin V1 (setting [6]), 12. Also, the “Average Change” value in the assay with Vasopressin V1 (setting [7]) came to 12; in the assay on Vasopressin V1 (setting [8]) it was 9; in the assay on Vasopressin V1 (setting [9]), 9.5; with Vasopressin V1 (setting [10]) it was 7.5; in the assay on Vasopressin V1 (setting [11]), 6.5; in the assay with Vasopressin V1 (setting [12]) it was 19.5. Besides, the “Average Change” value with Vasopressin V1 (setting [13]) and in the assay on Vasopressin V1 (setting [14]) was 18 in each case. Moreover, the inhibition at 10 µM at oxytocin receptors came to 98%.
As to `Cc1ccccc1CC(=O)Nc1ccc(C(=O)N2Cc3cccn3Cc3ccccc32)cc1` [Example 93, N-[4(5H-Pyrrolo[2,1-c][1,4]benzodiazepin-10(11H)-ylcarbonyl)phenyl]-2-methylbenzeneacetamide], the IC50 is 0.9 nM at Rat Hepatic V1 Receptors and 60 nM on oxytocin receptors. Besides, the “% Inhibition” value with Vasopressin V1 (setting [1]) was 96%; with Vasopressin V1 (setting [2]), 94%; in the assay with Vasopressin V1 (setting [3]), 90%; in the assay on Vasopressin V1 (setting [4]), 88%; with Vasopressin V1 (setting [5]), 73%; in the assay with Vasopressin V1 (setting [6]) it was 74%. For the same compound, the “% Inhibition” value with Vasopressin V1 (setting [7]) worked out at 76%; in the assay with Vasopressin V1 (setting [8]) it was 94%; in the assay with Vasopressin V1 (setting [9]), 92%; in the assay with Vasopressin V1 (setting [10]) it was 90%; in the assay with Vasopressin V1 (setting [11]) it was 90%; with Vasopressin V1 (setting [12]) it was 78%. In addition, the “% Inhibition” value came out at 76% with Vasopressin V1 (setting [13]) and 74% with Vasopressin V1 (setting [14]). For the same compound, the “Average Change” value is given as 2 with Vasopressin V1 (setting [1]); 3 with Vasopressin V1 (setting [2]); 5 in the assay with Vasopressin V1 (setting [3]); 6 in the assay on Vasopressin V1 (setting [4]); 13.5 in the assay on Vasopressin V1 (setting [5]); 13 with Vasopressin V1 (setting [6]). For the same compound, the “Average Change” value with Vasopressin V1 (setting [7]) turned out to be 12; in the assay with Vasopressin V1 (setting [8]), 4.5; with Vasopressin V1 (setting [9]), 5.5; with Vasopressin V1 (setting [10]), 7; with Vasopressin V1 (setting [11]), 7; with Vasopressin V1 (setting [12]), 15.5. Besides, the “Average Change” value in the assay with Vasopressin V1 (setting [13]) amounted to 17; in the assay with Vasopressin V1 (setting [14]), 18.5. For the same compound, testing at 10 µM at oxytocin receptors gave an inhibition of 87%.
As to `Cc1ccccc1C(=O)Nc1ccc(C(=O)N2Cc3ccnn3Cc3ccccc32)cc1` [Example 210, N-[4-(4H-Pyrazolo[5,1-c][1,4]benzodiazepin-5(10H)-ylcarbonyl)phenyl]-2-methylbenzamide], the IC50 on Rat Hepatic V1 Receptors was 58 nM. In the assay with Vasopressin V1 (10 mg/kg i.v.), the “Max. % Inhibition” value is recorded as 78% and the “Time (of max. % inhibition)” value is 90 min. Also, on oxytocin receptors, the IC50 stood at 4000 nM and the inhibition at 10 µM was 64%.

As a reminder, the IC50 is the concentration needed to halve the response being measured. Usually % Inhibition stands for the relative decrease from the control value, in per cent. Usually inhibition stands for the percentage by which the read-out fell short of the control.
